Publication PMC8129907 (Journal of Bone and Joint Infection, 2021)
Read-outs that look alike come from different tables or passages of the source. Marks after values point to notes of the source that are not given here.

Columns and labels:
[1] = Plasma vancomycin concentrations after tibial intraosseous administration; settings: pig, 500 mg intraosseous, no tourniquet, mean (SD), n = 8
Protocol: (§1) Eight female pigs, from the same supplier and raised under the same conditions, were included in the study (Danish Landrace Breed, age 5 months, weight 78–82 kg). The pigs were kept under general anesthesia with a continuous infusion of propofol (450–650 mg/h) and fentanyl (0.5–0.7 mg/h) throughout the entire study period. The arterial pH and body temperature were monitored and kept in the ranges of 7.37–7.52 and 36.4–40.0 ^∘ C, respectively. After the study, the pigs were euthanized using pentobarbital.
(§2) Afterwards, all probes were individually calibrated by the retrodialysis method by collecting a 60 min sample. […] The first three dialysates were collected at times 40, 80, and 120 min. Thereafter, dialysates were collected at 60 min intervals from times 120 to 720 min, giving a total of 13 samples from each compartment over 12 h. Blood samples were drawn from a central venous catheter at the midpoint of the microdialysis sample intervals. The dialysates were instantly stored at -80 ^∘ C until analysis. Blood samples were stored at 5 ^∘ C for a maximum of 4 h before being centrifuged at 3000 rpm for 10 min. The obtained plasma aliquots were then stored at -80 ^∘ C until analysis.
(§3) Intra-run (total) imprecisions for the assay were ±1.2 µg/mL (2 standard deviations – SD) at 6.6 and ±3.7 µg/mL (2 SD) at 29.1 µg/mL .
Standard pharmacokinetic parameters were determined separately for each compartment in each pig by non-compartmental analysis using Stata (v. 14.1, StataCorp LLC, College Station, TX, USA). The area under the concentration–time curve (AUC 0-last ) was calculated using the trapezoidal rule. The maxima of all the recorded concentrations were defined as peak drug concentration ( Cmax ) and enabled a calculation of the time to Cmax ( Tmax ). Half-life ( T1/2 ) was determined for all compartments except for tibial cortical bone and calculated as ln(2)/ λeq , where λeq is the terminal elimination rate constant estimated by linear regression of the log concentration on time. For AUC 0-last and Cmax , a mixed model for repeated measurements was applied, taking the variance between pigs into account. The model assumptions were tested by visual diagnosis of residuals, fitted values, and estimates of random effects. A correction for degrees of freedom due to small sample size was handled using the Kenward–Roger approximation method. The t test was used to determine relevant pairwise comparisons. A p value <0.05 was considered to be significant. A Spearman test was used to test the correlation between the distance of the intraosseous cannula and the adjacent cancellous bone drill hole with the peak drug concentration. Statistical analyses were also performed using Stata. […] Values below the quantification limit were set to zero.

[2] = pig, 500 mg intraosseous, no tourniquet, microdialysis, mean (SD), n = 8; for AUC 0-last: 12 h
Protocol: as §1
An intraosseous cannula (15 mm) was inserted into the medial tibial condyle approximately 10 mm distal to the epiphyseal line; see Fig. 1. Three tibial microdialysis probes were placed in drill holes, one in the adjacent cancellous bone parallel to and at a mean distance of 9 (range 7–10) mm from the intraosseous cannula tip (drill depth 35±1 mm), one in the cortical bone at the anterior–medial margin of the tibial diaphysis (drill depth 14±0.5 mm), and one within the intramedullary canal of the tibial diaphysis. All drill holes were made with a 2 mm drill, which was paused every few seconds to prevent overheating of the bone tissue. Subsequently, a probe was placed in the synovial fluid of the knee joint using a splittable introducer. Finally, a subcutaneous tissue probe was placed lateral to the knee joint. No tourniquet was applied. Correct positions of all the probes and the distance between the intraosseous cannula and the adjacent cancellous bone microdialysis catheter were verified by fluoroscopy.
Due to continuous perfusion of the microdialysis system, a complete equilibrium across the semipermeable membrane will never occur. The concentration in the dialysate will therefore only represent a fraction of the absolute tissue concentration, which is expressed as the relative recovery. Thus, relative recovery must be determined to assess the absolute tissue concentrations. In the present study, all microdialysis probes were individually calibrated in the beginning of the study using the retrodialysis by drug method (Scheller and Kolb, 1991).
In the present study we used CMA 107 precision pumps ( μ -Dialysis AB, Stockholm, Sweden) producing a flow rate of 1 µL/min and CMA 70 probes (membrane lengths 10 and 20 mm, molecular cutoff 20 kDa).
as §2, §3
Standard pharmacokinetic parameters were determined separately for each compartment in each pig by non-compartmental analysis using Stata (v. 14.1, StataCorp LLC, College Station, TX, USA). The area under the concentration–time curve (AUC 0-last ) was calculated using the trapezoidal rule. The maxima of all the recorded concentrations were defined as peak drug concentration ( Cmax ) and enabled a calculation of the time to Cmax ( Tmax ).

[3] = proximal tourniquet applied before intraosseous administration, ref Young et al., 2014, Chin et al., 2018, Rubio-Martinez et al., 2006, cited from earlier work
[4] = system: Commonly encountered bacteria in orthopaedic infections; set-up: method as in Rybak, 2006; EUCAST, 2019; settings: range for commonly encountered bacteria in orthopaedic infections; ref Rybak, 2006; EUCAST, 2019; cited from earlier work
[5] = intramedullary canal in the tibia
[6] = synovial fluid of the knee joint

CN[C@H](CC(C)C)C(=O)N[C@H]1C(=O)N[C@@H](CC(N)=O)C(=O)N[C@H]2C(=O)N[C@H]3C(=O)N[C@H](C(=O)N[C@H](C(=O)O)c4cc(O)cc(O)c4-c4cc3ccc4O)[C@H](O)c3ccc(c(Cl)c3)Oc3cc2cc(c3O[C@@H]2O[C@H](CO)[C@@H](O)[C@H](O)[C@H]2O[C@H]2C[C@](C)(N)[C@H](O)[C@H](C)O2)Oc2ccc(cc2Cl)[C@H]1O [vancomycin]
AUC 0-last ([1]; plasma (free concentration, enzyme immunoassay), 12 h): 3,673 (611) min µg/mL
Cmax (peak drug concentration) ([1]; plasma (free concentration, enzyme immunoassay)): 19 (2) µg/mL
T1/2 ([1]; plasma): 254 (128) min
Tmax ([1]; plasma): 20 (19) min
AUC 0-last [2, 5]: 1980 (908) ^a min µg/mL
T1/2 [2, 5]: 339 (332) min
Tmax [2, 5]: 65 (26) min
AUC 0-last ([2]; subcutaneous tissue): 1881 (691) ^a min µg/mL
T1/2 ([2]; subcutaneous tissue): 361 (269) min
Tmax ([2]; subcutaneous tissue): 70 (19) min
AUC 0-last [2, 6]: 1565 (758) ^a min µg/mL
T1/2 [2, 6]: 217 (140) min
Tmax [2, 6]: 45 (21) min
T1/2 ([2]; tibial cancellous bone): 279 (188) min
Tmax ([2]; tibial cancellous bone): 111 (94) min
vancomycin concentration after 11.5 h (690 min), end concentration ([2]; tibial cancellous bone): 278 (469) µg/mL
AUC 0-last ([2]; tibial cortical bone): 326 (331) min µg/mL
Tmax ([2]; tibial cortical bone): 405 (278) min
systemic vancomycin plasma levels after tourniquet deflation ([3]; range): 1.8 to 6.0 µg/mL
increase of plasma levels after tourniquet deflation [3]: 4–10 fold
systemic vancomycin plasma levels during tourniquet inflation [3]: 0.0 to 2.7 µg/mL
planktonic MIC [4]: 0.5 to 4 µg/mL
